In brackets after ≈: the same amount, converted by molar mass.
Experiments:
Assay type in all cases: cell-based
[1] = tested on: Staphylococcus aureus MSQS (methicillin sensitive and quinolone sensitive); assay: MIC, agar dilution, staphylococci (MSQS strain); conditions: 10^4 CFU/spot, 37° C., 24 hours
Protocol: (§1) The following results were obtained on a standard in-vitro test system The activity is described in terms of the minimum inhibitory concentration (MIC) determined by the agar-dilution technique with an inoculum size of 10^4 CFU/spot. Typically, compounds are active in the range 0.01 to 256 μg/ml.
(§2) Staphylococci were tested on agar, using an inoculum of 10^4 CFU/spot and an incubation temperature of 37° C. for 24 hours—standard test conditions for the expression of methicillin resistance.

[2] = tested on: Staphylococcus aureus MRQR (methicillin resistant and quinolone resistant); assay: MIC, agar dilution, staphylococci (MRQR strain); conditions: 10^4 CFU/spot, 37° C., 24 hours
Protocol: as §1, §2

Streptococcus pneumoniae = assay: MIC, agar with 5% defibrinated horse blood, streptococci; conditions: agar + 5% horse blood, 10^4 CFU/spot, 37° C., 5% carbon dioxide, 48 hours
Protocol: as §1
(§3) Streptococci and enterococci were tested on agar supplemented with 5% defibrinated horse blood, an inoculum of 10^4 CFU/spot and an incubation temperature of 37° C. in an atmosphere of 5% carbon dioxide for 48 hours—blood is required for the growth of some of the test organisms. Fastidious Gram negative organisms were tested in Mueller-Hinton broth, supplemented with hemin and NAD, grown aerobically for 24 hours at 37° C., and with an innoculum of 5×10^4 CPU/well.

Haemophilus influenzae = assay: MIC, fastidious Gram negative organisms in Mueller-Hinton broth; conditions: Mueller-Hinton broth with hemin and NAD, aerobic, 24 hours, 37° C.
Protocol: as §1, §3

Moraxella catarrhalis = assay: as above; conditions: Mueller-Hinton broth with hemin and NAD, aerobic, 24 hours, 37° C.
Protocol: as §1, §3

Enterococcus faecium = assay: MIC, agar with 5% defibrinated horse blood, enterococci; conditions: agar + 5% horse blood, 10^4 CFU/spot, 37° C., 5% carbon dioxide, 48 hours
Protocol: as §1, §3

[3] = tested on: Linezolid Resistant Streptococcus pneumoniae; assay: MIC, agar with 5% defibrinated horse blood, linezolid resistant streptococci; conditions: agar + 5% horse blood, 10^4 CFU/spot, 37° C., 5% carbon dioxide, 48 hours
Protocol: as §1, §3

MIC [1]: 0.5 µg/mL (≈ 1.1 µM) | MIC [2]: 0.5 µg/mL (≈ 1.1 µM) | MIC (Streptococcus pneumoniae): 0.13 µg/mL | MIC (Haemophilus influenzae): 4 µg/mL (≈ 8.78 µM) | MIC (Moraxella catarrhalis): 0.5 µg/mL (≈ 1.1 µM) | MIC (Enterococcus faecium): 0.5 µg/mL | MIC [3]: 1 µg/mL
Structure (SMILES): O=C1O[C@@H](Cn2ccnn2)CN1c1ccc(-c2ccc(C3=NOC(CO)C3)c(F)c2)c(F)c1 (stereo partly drawn) [Example 4, (5R)-3-{2,3′-Difluoro-4′-[5-(hydroxymethyl)-4,5-dihydroisoxazol-3-yl]-1,1′-biphenyl-4-yl}-5-(1H-1,2,3-triazol-1-ylmethyl)-1,3-oxazolidin-2-one]

Source: US20060116401A1, “Antibacterial compounds” (AstraZeneca AB, priority 2002, published 2006)
